The record followed here is PubChem BioAssay (NCI).

Assay in all cases: inhibition of tumour cell growth, NCI panel, 48 h
Test [1] has as its system HOP-92 NSCLC.
The subject of test [2] is IGROV1 ovarian.
The subject of test [3] is K-562 leukemia.
Test [4] deals with LOX IMVI melanoma.
Test [5] has as its system NCI-H23 lung.
In test [6] the test system is OVCAR-5 ovarian.
Test [7] has as its system SK-MEL-2 melanoma.
Test [8] concerns SK-OV-3 ovarian.
Test [9] concerns TK-10 renal.
In test [10] the test system is UACC-62 melanoma.

“And” between values parts separate entries of the source, which are not always exact repeats. Equal values may be shown once.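 The compound was tested at five concentrations on cells cultured in 96-well plates, with a 48-hour exposure period. GI50 = concentration required for 50% inhibition of growth. The concentration for full growth arrest is given as TGI.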

As for `CNC(=O)OCc1nc(SC)n(C)c1COC(=O)NC`, the TGI in test [1] was determined as 376 µM; in test [2], 531 µM; in test [3], 508 µM; in test [4], 364 µM; in [5] it was 329 µM; in test [6] it was 451 µM. Moreover, the TGI in test [7] worked out at 290 µM; in test [8], 525 µM; in test [9] it was 702 µM; in test [10] it was 103 µM.
`O=C(/C=C/c1ccccc1O)c1ccccc1Cl`: the TGI in test [1] was > 100 µM; in [2] it was > 100 µM; in test [3], > 100 µM; in test [4] it was 73.6 µM; in test [5], > 100 µM; in test [6], > 100 µM. Moreover, the TGI in test [7], in [8], in [9] and in test [10] was > 100 µM each time.
Turning to `CSC1=Nc2c(c(C)c(-c3ccccc3)n2COC(CO)CO)C2=NC(=O)CC(C)N12` (stereo unspecified), the GI50 in test [1], in test [2], in test [3], in test [4], in [5] and in [6] was > 100 µM each time. Besides, the GI50 in test [7], in [8], in [9] and in [10] was > 100 µM in each case. Further, the TGI in test [1], in [2], in [3], in test [4], in test [5] and in [6] was > 100 µM in each case. In addition, the TGI in test [7], in [8], in [9] and in test [10] was > 100 µM throughout.
For `N#Cc1cc(S(=O)(=O)Nc2nc3cc(Cl)ccc3o2)c(SCc2ccccc2)cc1Cl`, the GI50 is 10.5 µM in test [1]; 15 µM in test [2]; 14.3 µM in [3]; 13.5 µM in test [4]; 15.6 µM in [5]; 13 µM in test [6]. Also, the values for the GI50 in test [7], in test [9] and in test [10] were 12.4 µM, 14.8 µM and 13.2 µM, respectively. Further, the TGI was 23.5 µM in test [1]; 28.3 µM in test [2]; 27.4 µM in [3]; 26.3 µM in [4]; 28.9 µM in test [5]; 25.7 µM in test [6]. Moreover, the TGI in test [7] worked out at 24.8 µM; in test [9], 28 µM; in [10], 25.9 µM.
On to `CC(=O)OCC1OC(n2c3c(cc(C#N)c2=S)CCCC3)C(OC(C)=O)C(OC(C)=O)C1OC(C)=O` (stereo unspecified), for which the GI50 in test [1] is > 100 µM and 32.4 µM; in test [3], 24.1 µM and > 100 µM; in test [4], 20.7 µM and > 100 µM; in [7] it was > 100 µM and 27 µM; in test [10] it was > 100 µM and 26.5 µM. Further, the TGI in test [1] was > 100 µM; in test [2] it was > 100 µM; in test [3], 68 µM and > 100 µM; in [4], 57.3 µM and > 100 µM; in test [5], > 100 µM; in [6], > 100 µM. For the same molecule, the TGI in test [7], in test [9] and in test [10] was > 100 µM each time.
Consider `COc1cc(-c2nn(-c3cccc(NC(=O)CCNc4ccc(N5CCOCC5)cc4)c3)cc2-c2ccncc2)ccc1Cl`, for which the GI50 in test [1] was 2.37 µM; in [2], 3.31 µM; in test [4] it was 2.6 µM; in [5], 2.68 µM; in test [6] it was 3.43 µM; in test [7], 2.07 µM. For the same molecule, the GI50 is 5.02 µM in [8], 3.13 µM in test [9] and 1.88 µM in test [10]. The TGI in test [1] is 8.01 µM; in test [2], > 100 µM; in test [4], 13 µM; in test [5], 20.6 µM; in [6], > 100 µM; in test [7] it was 5.64 µM. Further, the TGI in [8] is > 100 µM; in [9], 47.9 µM; in [10], 4.89 µM.
As for `N#CCc1cccc(CC#N)c1Br`, the TGI in test [1], in test [2], in [3], in [4], in test [5] and in test [6] was > 100 µM each time. Moreover, the TGI in test [7], in [8] and in test [10] was > 100 µM in each case.
Regarding `COc1cc(/C=C2\SC(N3CCCCC3)=NC2=O)ccc1OCCCCCCOc1ccc(/C=C2\SC(N3CCCCC3)=NC2=O)cc1OC`, the GI50 is 2.47 µM in test [1]; 11.1 µM in test [2]; 8.35 µM in test [4]; 12.6 µM in test [5]; 22.9 µM in test [6]; 21.8 µM in test [7]. In addition, the GI50 in test [8] is 4.91 µM; in test [9] it was 11.5 µM; in test [10], 16.1 µM. The TGI is 8.95 µM in test [1]; 43 µM in [2]; 35.7 µM in test [4]; 40.9 µM in [5]; 59.1 µM in [6]; 93.9 µM in test [7]. Also, the TGI in test [8] amounted to 17.4 µM; in [9] it was 27.9 µM; in test [10], 67.1 µM.
Regarding `COc1cc(-c2nn(-c3cccc(NC(=O)CCN4CCN(c5ccccc5)CC4)c3)cc2-c2ccncc2)ccc1Cl`, the GI50 was 2.92 µM in test [1]; 4.12 µM in [2]; 2.02 µM in test [4]; 3.09 µM in [5]; 3.15 µM in test [6]; 2.45 µM in [7]. In addition, the GI50 was 4.27 µM in test [8], 3.69 µM in test [9] and 2.49 µM in test [10]. Besides, the TGI in [1] was 19.5 µM; in test [2], > 100 µM; in [4] it was 5.47 µM; in [5], > 100 µM; in [6], > 100 µM; in test [7], 6.85 µM. The TGI in [8] was > 100 µM; in test [9], > 100 µM; in test [10], 8.01 µM.
With `Nc1ccccc1C#Cc1ccccc1C#Cc1cccs1`, the GI50 in test [1] is 5.87 µM; in [2] it was 18.4 µM; in test [3], 15.5 µM; in [4], 14 µM; in test [5], 17.2 µM; in test [6], 14.5 µM. Further, the GI50 in test [7] is 30.2 µM; in test [8], 32.7 µM; in test [10], 13.8 µM. Besides, the TGI in test [1] stood at 22.2 µM; in test [2], 90.8 µM; in [3], 40.7 µM; in [4] it was 27.5 µM; in test [5], 34.1 µM; in test [6], 30 µM. Further, the values for the TGI in test [7], in test [8] and in test [10] were 73.5 µM, > 100 µM and 28.6 µM, respectively.
For the molecule `Clc1ccc(CN2CCCN(Cc3ccc(Cl)cc3)C2c2cc3ccccc3c3ccccc23)cc1`, the TGI in test [1] was > 100 µM; in test [2], > 100 µM; in test [4] it was > 100 µM; in test [5], > 100 µM; in test [6] it was > 100 µM; in [7], 44.1 µM. Also, the figures for the TGI in test [8], in test [9] and in [10] were > 100 µM, > 100 µM and 36.7 µM, respectively.
As for `COc1cc2c3c(n(CCCNCCCNCCCN)c(=O)c2cc1OC)-c1cc2c(cc1C3=O)OCO2`, the GI50 in test [1] was > 100 µM; in test [2], > 100 µM; in [4] it was 32.4 µM; in test [5], 13.5 µM; in test [7] it was > 100 µM; in test [8], > 100 µM. Besides, the GI50 in test [9] was > 100 µM; in test [10], 44.1 µM. Besides, the TGI in test [1], in test [2], in [4], in [5], in test [7] and in test [8] was > 100 µM each time. Moreover, the TGI in test [9] and in test [10] was > 100 µM each time.
As to `COc1ccc2c(c1)C(=O)c1c-2c(OCCN(C)C)nc2cc(OC)c(OC)cc12`, the GI50 was 3.22 µM in test [1]; 5.04 µM in test [3]; 1.01 µM in [4]; 9.32 µM in [5]; 23.7 µM in test [6]; > 100 µM in test [7]. Further, the results for the GI50 in [8], in test [9] and in test [10] were 18.9 µM, 13.9 µM and 51.5 µM, respectively. The TGI in test [1] is 19.6 µM; in test [3] it was 30.9 µM; in test [4] it was 12.3 µM; in test [5], 22.9 µM; in test [6], 55.9 µM; in [7] it was > 100 µM. Also, the results for the TGI in test [8], in test [9] and in test [10] were > 100 µM, 27.5 µM and > 100 µM, respectively.
